# Measurements published in patent US20210038579A1, “Treatment Of Patients With Classic Fabry Disease” (Amicus Therapeutics, Inc., priority 2018, published 2021).
# Changes are numbered by the printed parent chain. Several values for one entry are separate records, joined by “and”; a condition that tells them apart may be missing. Equal values may be shown once.
# Tests used:
# Test in all cases: HEK assay: α-Gal A activity in HEK-293 cell lysate with migalastat
# Type in all cases: cell-based
# [1] = biological target: T1, α-Gal A mutant form p.Gly258Arg (c.772 G > C) (Homo sapiens, UniProt P06280, G258R)
# T1 construct: expressed in transfected cells; host or cells: HEK-293
# T1 sequence (P06280 32-429 G258R): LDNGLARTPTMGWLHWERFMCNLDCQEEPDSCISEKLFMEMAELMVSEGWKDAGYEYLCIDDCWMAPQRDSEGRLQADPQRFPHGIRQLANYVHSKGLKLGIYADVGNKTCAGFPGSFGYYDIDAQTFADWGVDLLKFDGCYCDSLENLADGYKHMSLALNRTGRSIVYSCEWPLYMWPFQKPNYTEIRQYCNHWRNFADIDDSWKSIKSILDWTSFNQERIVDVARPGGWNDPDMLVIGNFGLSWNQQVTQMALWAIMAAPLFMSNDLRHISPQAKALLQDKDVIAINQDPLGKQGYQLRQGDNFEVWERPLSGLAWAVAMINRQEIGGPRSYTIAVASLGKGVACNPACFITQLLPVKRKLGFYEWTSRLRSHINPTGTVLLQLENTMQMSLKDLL
# Method: (§1) Such mutations are also referred to herein as “HEK assay amenable” mutations.
# (§2) In this assay, cDNA constructs are created. The corresponding α-Gal A mutant forms are transiently expressed in HEK-293 cells. Cells are then incubated±migalastat (17 nM to 1 mM) for 4 to 5 days. After, α-Gal A levels are measured in cell lysates using a synthetic fluorogenic substrate (4-MU-α-Gal) or by western blot. This has been done for known disease-causing missense or small in-frame insertion/deletion mutations.
# [2] = biological target: T2, α-Gal A mutant form p.Gly183Asp (c.548 G > A) (Homo sapiens, UniProt P06280, G183D)
# T2 construct: expressed in transfected cells; host or cells: HEK-293
# T2 sequence (P06280 32-429 G183D): T1 sequence (P06280 32-429 G258R) with G152D, R227G
# Method: as §1, §2
# [3] = biological target: T3, α-Gal A mutant form p.Gly325Arg (c.973G > C) (Homo sapiens, UniProt P06280, G325R)
# T3 construct: expressed in transfected cells; host or cells: HEK-293
# T3 sequence (P06280 32-429 G325R): T1 sequence (P06280 32-429 G258R) with R227G, G294R
# Method: as §1, §2
# [4] = biological target: T4, α-Gal A mutant form p.Asp244Asn (c.730 G > A) (Homo sapiens, UniProt P06280, D244N)
# T4 construct: expressed in transfected cells; host or cells: HEK-293
# T4 sequence (P06280 32-429 D244N): T1 sequence (P06280 32-429 G258R) with D213N, R227G
# Method: as §1, §2
# [5] = biological target: T5, α-Gal A mutant form p.Ile317Thr (c.950 T > C) (Homo sapiens, UniProt P06280, I317T)
# T5 construct: expressed in transfected cells; host or cells: HEK-293
# T5 sequence (P06280 32-429 I317T): T1 sequence (P06280 32-429 G258R) with R227G, I286T
# Method: as §1, §2
# [6] = +10 μM migalastat, HEK-293 cell lysate, mean ± SEM, n = 20
# [7] = HEK293, 10 μM migalastat minus baseline, read-out: Absolute increase at 10 μM (% WT)
compound,measurement,setting,value
OC[C@H]1NC[C@H](O)[C@@H](O)[C@H]1O [migalastat],α-Gal A activity at 10 μM (fold over baseline),[1]; 10 μM migalastat,2.37 fold over baseline
same,+Migalastat α-Gal A activity,[1]; [6],22630 ± 801 nmol/mg/h
same,+Migalastat α-Gal A activity % WT,[1]; [6],78.1 ± 5.8 % WT
same,activation at 10 µM,[1]; [7],45.5%
same,α-Gal A activity at 10 μM (fold over baseline),[2]; 10 μM migalastat,29.31 fold over baseline
same,+Migalastat α-Gal A activity,[2]; [6],6074 ± 212 nmol/mg/h
same,+Migalastat α-Gal A activity % WT,[2]; [6],19.1 ± 1.0 % WT and 19.1 ± 10 % WT
same,activation at 10 µM,[2]; [7],18.4%
same,α-Gal A activity at 10 μM (fold over baseline),[3]; 10 μM migalastat,10.17 fold over baseline
same,+Migalastat α-Gal A activity,[3]; [6],9244 ± 417 nmol/mg/h
same,+Migalastat α-Gal A activity % WT,[3]; [6],26.6 ± 1.4 % WT
same,activation at 10 µM,[3]; [7],24%
same,α-Gal A activity at 10 μM (fold over baseline),[4]; 10 μM migalastat,1.58 fold over baseline
same,+Migalastat α-Gal A activity,[4]; [6],16321 ± 402 nmol/mg/h
same,+Migalastat α-Gal A activity % WT,[4]; [6],48.7 ± 1.7 % WT
same,activation at 10 µM,[4]; [7],17.8%
same,α-Gal A activity at 10 μM (fold over baseline),[5]; 10 μM migalastat,3.40 fold over baseline
same,+Migalastat α-Gal A activity,[5]; [6],7812 ± 530 nmol/mg/h
same,+Migalastat α-Gal A activity % WT,[5]; [6],23.6 ± 1.0 % WT
same,activation at 10 µM,[5]; [7],17%
